Reference: patent publication US10906169B1, “Muscle-powered biological machines” (The Board of Trustees of the University of Illinois, priority 2016, dated 2021)
“Also recorded” adds a separate entry of the source.

Key:
[1] = tested on: MNs in multi-layered tissue rings; assay: Chemical stimulation of motor neurons in multi-layered tissue rings (muscle contraction tracked by video); type: cell-based, mouse; conditions: for frequency of muscle twitching / average displacement: day 9 after co-culture; for effect on glutamate-induced muscle contractions: 25 μM curare added after glutamate stimulation
Experimental: To stimulate motor neurons in tissue rings, glutamate was added to cell culture medium in a bath application of either 200 μM or 400 μM, as noted. Tissues were then transferred to fresh medium. After chemical stimulation, the nicotinic AChR antagonist curare was added to cell culture medium in a bath application of 25 μM. Tissues were then rinsed in PBS and transferred to fresh medium.
Muscle contraction within tissue rings was captured using a digital camera on a stereomicroscope with a capture rate of 5-10 frames s^−1. Image sequences were exported to .avi files. A custom Matlab script was used to calculate x-y displacement of user-specified regions of interest using normalized 2D cross-correlation, as described previously^3.
On day 9 after co-culture, we chemically stimulated MNs by adding glutamate. Multi-layered tissue rings were first subjected to a bath application of 200 μM glutamate in complete neural differentiation medium. Through video recordings, we observed that local muscle contraction began in response to chemical stimulation of MNs (FIG. 16d). When we increased the glutamate concentration from 200 to 400 μM, the frequency of muscle twitching increased from 1.08 to 1.33 contractions sec^−1, while the average displacement decreased from 6.3±0 to 4.4±0.2 μm per twitch (FIG. 16e).

EBs containing MNs = assay: Neurite growth from embryoid bodies on 2D ECM-coated substrates; type: cell-based, mouse
Experimental: 4. Neurite Growth Measurements. After day 9 of differentiation, EBs were plated on either collagen I or Matrigel™ coated dishes in complete neural differentiation medium. […] Live samples were imaged on days 10-14 using an inverted fluorescent microscope for 2D cultures (IX81, Olympus) or a confocal microscope for 3D tissue rings (LSM710, Zeiss). The NeuronJ plug-in (ImageScience) for ImageJ was used to measure neurite growth distances (FIG. 17).
When allowed to adhere to natural ECM substrates such as collagen I13A and Matrigel™ (FIG. 13b and FIG. 19b), EBs containing MNs attached readily and extended neurites across the gels. Neurites grew 417.5±154.8 and 999.1+356.9 μm after 4 days of attachment (propagating at nearly linear rates of 88.6 and 264.8 μm day^−1) on collagen I and Matrigel™ surfaces, respectively (FIG. 13c). Similarly, EBs adhered to (and extended neurites across) the surface of 2D layers of differentiated C2C12s (FIG. 13d and FIG. 19c). After 5 days of co-culture, we identified clusters of post-synaptic acetylcholine receptors (visualized with fluorescently-conjugated α-BTX, which binds to a subunit of AChR) near the termination of neurite extensions on myotubes (FIG. 13e).

For `N[C@@H](CCC(=O)O)C(=O)O` [glutamate, L-glutamic acid], the frequency of contraction ([1]; 200 μM glutamate (FIG. 16e, mean values)) was 1.08 contractions/s, the “frequency of muscle twitching” value ([1]; 200 μM glutamate bath application) was 1.08 contractions sec^−1 and the average displacement ([1]; 200 μM glutamate) was 6.3±0 μm per twitch. The frequency of contraction ([1]; 400 μM glutamate (FIG. 16e, mean values)) was 1.33 contractions/s, the “frequency of muscle twitching” value ([1]; 400 μM glutamate bath application) was 1.33 contractions sec^−1 and the average displacement ([1]; 400 μM glutamate) was 4.4±0.2 μm per twitch. For the same compound, the “dependence of contraction frequency on concentration” value ([1]; chemical stimulation of MNs, 200 and 400 μM glutamate) was “frequency of contraction increasing with glutamate concentration”.

With “(+)-tubocurarine chloride hydrochloride pentahydrate [curare]” the “frequency of contraction after addition” value ([1]; 25 μM curare (FIG. 16e)) was 0 observed contractions, the “effect on glutamate-induced muscle contractions” value [1] was “halted the contractions; also recorded: terminated the contractions” and the “effect on glutamate-induced muscle contractions” value ([1]; listed as tubocurarine chloride (curare)) was “halted the contractions”.

“collagen I: natural ECM substrate; collagen I-coated dishes from Gibco” was tested, and the “rate of neurite propagation (nearly linear)” value (EBs containing MNs; EBs attached to the coated surface, over 4 days) was 88.6 μm day^−1 and the neurite growth (EBs containing MNs; after 4 days of attachment of EBs to the coated surface) was 417.5±154.8 μm.
